The assay addresses T1, human NaV1.8 (hNaV1.8) ion channel (Homo sapiens, UniProt Q9Y5Y9).
T1 construct: expressed in transfected cells
Description: Inhibition of Human NaV1.8 stably expressed in SH-SY-5Y cells (membrane potential dye fluorescence assay). Type of assay: cell-based. As to conditions: FLIPR membrane potential dye, 10 μM pyrethroid, 250 nM TTX, test range 100 μM-0.05 μM. On the procedure:
Inhibition of Human NaV1.8 stably expressed in SH-SY-5Y cells
A SH-SY-5Y neuroblastoma cell line stably expressing the human NaV1.8 (hNaV1.8) ion channel was constructed. This cell line has been used to develop a medium to high throughput assay for determining the ability of test compounds to inhibit membrane depolarisation mediated via the hNaV1.8 channel.
SH-SY-5Y hNaV1.8 are grown in adherent monolayer culture using 50:50 Ham's F-12/EMEM tissue culture medium supplemented with 15% (v/v) foetal bovine serum; 2 mM L-glutamine, 1% NEAA and 600 μg·ml^−1 Geneticin sulphate. Cells are removed from the tissue culture flask using trypsin/EDTA and re-plated into black walled, clear bottom 96-well assay plates at 50,000 cells·well^−1 24 hours prior to assay.
On the day of assay the cell assay plates are washed to remove cell culture medium using a sodium free assay buffer (145 mM tetramethyl ammonium chloride; 2 mM calcium chloride; 0.8 mM magnesium chloride hexahydrate; 10 mM HEPES; 10 mM glucose; 5 mM potassium chloride, pH 7.4). Fluorescent membrane potential dye solution (FLIPR™ membrane potential dye, Molecular Devices Corporation), containing 10 μM of a pyrethroid to prevent channel inactivation and 250 nM tetrodotoxin (TTX) to reduce interference from TTX-sensitive sodium channels present in the cell line. Test compound, initially dissolved in dimethyl sulfoxide but further diluted in sodium free buffer, is added to achieve the final test concentration range of 100 μM-0.05 μM.
Cell plates are incubated for 30 minutes at room temperature to allow equilibration of dye and test compound. Plates are then transferred to a fluorescence plate reader for fluorescence measurement using an excitation wavelength of 530 nm whilst measuring fluorescence emission at 565 nm. […] Membrane depolarisation is registered by an increase in fluorescence emission at 565 nm.
The change in fluorescence seen in each test well upon the addition of sodium containing buffer is calculated relative to the baseline fluorescence for that well. This figure is then used for calculating the IC50 for each test compound.

Where [1] appears, read: SH-SY-5Y cells stably expressing hNaV1.8, read-out: hNav1.8 IC50.

pIC50: −log10 of the molar value. Like-named read-outs stand apart in the source and are kept apart here.

By pIC50 is commonly meant the negative decadic logarithm of the IC50, by convention in mol/L.

T1 sequence (Q9Y5Y9 whole entry): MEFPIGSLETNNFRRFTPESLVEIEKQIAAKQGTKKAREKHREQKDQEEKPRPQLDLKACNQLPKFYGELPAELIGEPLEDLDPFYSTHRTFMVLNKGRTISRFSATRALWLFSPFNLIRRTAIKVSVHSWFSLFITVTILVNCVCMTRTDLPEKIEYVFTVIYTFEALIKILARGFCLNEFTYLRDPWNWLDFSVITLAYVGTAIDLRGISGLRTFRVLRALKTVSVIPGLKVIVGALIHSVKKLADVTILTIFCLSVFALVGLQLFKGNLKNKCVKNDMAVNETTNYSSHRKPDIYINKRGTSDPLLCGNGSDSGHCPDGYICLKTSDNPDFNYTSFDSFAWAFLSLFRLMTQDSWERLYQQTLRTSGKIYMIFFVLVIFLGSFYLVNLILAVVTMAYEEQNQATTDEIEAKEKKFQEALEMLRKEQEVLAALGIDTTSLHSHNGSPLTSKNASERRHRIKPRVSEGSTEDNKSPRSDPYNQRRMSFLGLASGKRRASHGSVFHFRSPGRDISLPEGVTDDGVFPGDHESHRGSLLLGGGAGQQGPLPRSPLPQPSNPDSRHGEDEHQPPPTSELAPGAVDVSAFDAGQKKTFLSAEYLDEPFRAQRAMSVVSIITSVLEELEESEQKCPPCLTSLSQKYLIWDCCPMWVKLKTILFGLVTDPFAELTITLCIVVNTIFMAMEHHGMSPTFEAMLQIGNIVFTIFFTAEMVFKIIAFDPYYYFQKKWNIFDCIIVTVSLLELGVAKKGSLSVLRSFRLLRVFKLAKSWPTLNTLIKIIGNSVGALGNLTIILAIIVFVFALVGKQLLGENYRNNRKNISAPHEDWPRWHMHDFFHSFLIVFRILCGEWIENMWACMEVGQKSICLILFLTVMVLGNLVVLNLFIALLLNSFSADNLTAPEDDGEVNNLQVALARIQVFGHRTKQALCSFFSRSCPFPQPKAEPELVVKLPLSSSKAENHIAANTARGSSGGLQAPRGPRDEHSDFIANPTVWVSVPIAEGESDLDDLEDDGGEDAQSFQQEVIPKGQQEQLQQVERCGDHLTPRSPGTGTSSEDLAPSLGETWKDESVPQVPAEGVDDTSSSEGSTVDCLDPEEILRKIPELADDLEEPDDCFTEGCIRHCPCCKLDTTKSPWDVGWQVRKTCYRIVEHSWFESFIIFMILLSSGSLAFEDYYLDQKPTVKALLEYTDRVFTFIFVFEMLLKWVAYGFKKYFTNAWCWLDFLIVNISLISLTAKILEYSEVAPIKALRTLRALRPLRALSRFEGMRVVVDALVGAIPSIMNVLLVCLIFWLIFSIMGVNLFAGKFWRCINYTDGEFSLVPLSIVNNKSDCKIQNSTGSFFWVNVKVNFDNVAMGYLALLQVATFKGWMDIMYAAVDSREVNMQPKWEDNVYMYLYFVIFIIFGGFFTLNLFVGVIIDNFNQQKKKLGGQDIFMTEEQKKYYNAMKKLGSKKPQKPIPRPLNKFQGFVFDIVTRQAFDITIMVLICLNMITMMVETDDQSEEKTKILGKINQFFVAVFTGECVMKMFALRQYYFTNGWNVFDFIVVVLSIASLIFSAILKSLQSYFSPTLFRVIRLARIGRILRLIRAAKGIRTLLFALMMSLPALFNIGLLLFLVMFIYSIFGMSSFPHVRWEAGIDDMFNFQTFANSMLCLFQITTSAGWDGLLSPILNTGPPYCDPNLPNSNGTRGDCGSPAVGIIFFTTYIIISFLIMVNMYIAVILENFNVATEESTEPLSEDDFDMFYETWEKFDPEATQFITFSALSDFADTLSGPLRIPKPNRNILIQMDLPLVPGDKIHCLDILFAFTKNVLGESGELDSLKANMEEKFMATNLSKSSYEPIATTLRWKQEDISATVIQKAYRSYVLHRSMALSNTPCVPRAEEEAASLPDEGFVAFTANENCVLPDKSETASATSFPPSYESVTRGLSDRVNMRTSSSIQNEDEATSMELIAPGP

`Cc1ccccc1CC(C)NC1CN(C(=O)NC(C)c2ccc(C(F)(F)F)cc2)C1` (centres unmarked) [Example 1, 3-(1-Methyl-2-o-tolyl-ethylamino)-azetidine-1-carboxylic acid [1-(4-trifluoromethyl-phenyl)-ethyl]-amide] had a negative logarithm of the IC50 (pIC50) (hNav1.8 IC50, SH-SY-5Y cells stably expressing hNaV1.8) of 5.89. With `CC(NC1CN(C(=O)NC(c2ccc(F)cc2)c2ccc(F)cc2)C1)c1ccc(F)cc1` (centres unmarked) [Example 2, 3-[1-(4-Fluoro-phenyl)-ethylamino]-azetidine-1-carboxylic acid [bis-(4-fluoro-phenyl)-methyl]-amide], the pIC50 under setting [1] was 5.58. Still for that read-out and setting: in the case of `CC(NC(=O)N1CC(NC2Cc3ccccc3C2)C1)c1ccc(C(F)(F)F)cc1` (centres unmarked) [Example 3, 3-(Indan-2-ylamino)-azetidine-1-carboxylic acid [1-(4-trifluoromethyl-phenyl)-ethyl]-amide] it was 5.53. Take `CC(NC(=O)N1CC(NC2CCc3ccccc3C2)C1)c1ccc(C(F)(F)F)cc1` (centres unmarked) [Example 4, 3-(1,2,3,4-Tetrahydro-naphthalen-2-ylamino)-azetidine-1-carboxylic acid [1-(4-trifluoromethyl-phenyl)-ethyl]-amide]: the pIC50 under setting [1] is 5.48. In the case of `CC(NC(=O)N1CC(NC2CCc3cc(F)ccc3C2)C1)c1ccc(C(F)(F)F)cc1` (centres unmarked) [Example 5, 3-(6-Fluoro-1,2,3,4-tetrahydro-naphthalen-2-ylamino)-azetidine-1-carboxylic acid [1-(4-trifluoromethyl-phenyl)-ethyl]-amide], the pIC50 under setting [1] was 5.76. The same measure, in the same setting: the figure for `CCCCOc1ccc(NC(=O)N2CC(NC3CCc4cc(F)ccc43)C2)cc1` (centres unmarked) [Example 6, 3-(5-Fluoro-indan-1-ylamino)-azetidine-1-carboxylic acid (4-butoxy-phenyl)-amide] is 5.92. With `O=C(Nc1ccc(Oc2ccc(F)cc2)cc1)N1CC(NC2CCc3cc(F)ccc32)C1` (centres unmarked) [Example 7, 3-(5-Fluoro-indan-1-ylamino)-azetidine-1-carboxylic acid [4-(4-fluoro-phenoxy)-phenyl]-amide], under setting [1], the pIC50 is 6.60. Regarding `O=C(Nc1ccc(Oc2ccc(F)cc2)cc1)N1CC(NC2CCc3cc(F)ccc3C2)C1` (centres unmarked) [Example 8, 3-(6-Fluoro-1,2,3,4-tetrahydro-naphthalen-2-ylamino)-azetidine-1-carboxylic acid [4-(4-fluoro-phenoxy)-phenyl]-amide], the pIC50 under setting [1] is 6.51. In the case of `O=C(Nc1ccc(Oc2ccc(F)cc2)c(F)c1)N1CC(NC2CCc3cc(F)ccc32)C1` (centres unmarked) [Example 11, 3-(5-Fluoro-indan-1-ylamino)-azetidine-1-carboxylic acid [3-fluoro-4-(4-fluoro-phenoxy)-phenyl]-amide], under setting [1], the pIC50 was 6.34. On the same count and under the same terms, the figure for `O=C(Nc1ccc(Oc2ccc(F)cc2)cc1)N1CC(NC2CCc3cc(O)ccc32)C1` (centres unmarked) [Example 12, 3-(5-Hydroxy-indan-1-ylamino)-azetidine-1-carboxylic acid [4-(4-fluoro-phenoxy)-phenyl]-amide] is 5.87; for `O=C(Nc1ccc(Oc2cccc(F)c2)cc1)N1CC(NC2CCc3cc(F)ccc32)C1` (centres unmarked) [Example 13, 3-(5-Fluoro-indan-1-ylamino)-azetidine-1-carboxylic acid [4-(3-fluoro-phenoxy)-phenyl]-amide] it is 6.51; for `O=C(Nc1ccc(Oc2ccccc2F)cc1)N1CC(NC2CCc3cc(F)ccc32)C1` (centres unmarked) [Example 14, 3-(5-Fluoro-indan-1-ylamino)-azetidine-1-carboxylic acid [4-(2-fluoro-phenoxy)-phenyl]-amide] it is 6.27.

For `O=C(Nc1ccc(Oc2ccc(F)cc2)c(F)c1)N1CC(NC2CCc3cc(Cl)ccc32)C1` (centres unmarked) [Example 15, 3-(5-Chloro-indan-1-ylamino)-azetidine-1-carboxylic acid [3-fluoro-4-(4-fluoro-phenoxy)-phenyl]-amide], under setting [1], the pIC50 is 6.19. For `O=C(Nc1ccc(Oc2ccc(F)cc2)c(F)c1)N1CC(NC2CCc3cc(Br)ccc32)C1` (centres unmarked) [Example 16, 3-(5-Bromo-indan-1-ylamino)-azetidine-1-carboxylic acid [3-fluoro-4-(4-fluoro-phenoxy)-phenyl]-amide], the pIC50 under setting [1] is 5.76. The same measure, in the same setting: the figure for `O=C(Nc1ccc(Oc2ccc(F)cc2)cc1)N1CC(NC2CCc3cc(Br)ccc32)C1` (centres unmarked) [Example 17, 3-(5-Bromo-indan-1-ylamino)-azetidine-1-carboxylic acid [4-(4-fluoro-phenoxy)-phenyl]-amide] is 6.27; for `O=C(Nc1ccc(Oc2ccc(F)cc2)cc1)N1CC(NC2CCc3cc(Cl)ccc32)C1` (centres unmarked) [Example 18, 3-(5-Chloro-indan-1-ylamino)-azetidine-1-carboxylic acid [4-(4-fluoro-phenoxy)-phenyl]-amide] it is 6.21. Regarding `O=C(Nc1ccc(Oc2ccc(F)cc2)cc1)N1CC(NC2CCCc3ccccc32)C1` (centres unmarked) [Example 19, 3-(1,2,3,4-Tetrahydro-naphthalen-1-ylamino)-azetidine-1-carboxylic acid [4-(4-fluoro-phenoxy)-phenyl]-amide], the pIC50 under setting [1] was 6.72. As to `CN(C(=O)N1CC(NC2CCc3cc(F)ccc32)C1)c1ccc(Oc2ccc(F)cc2)cc1` (centres unmarked) [Example 20, 3-(5-Fluoro-indan-1-ylamino)-azetidine-1-carboxylic acid [4-(4-fluoro-phenoxy)-phenyl]-methyl-amide], the negative logarithm of the IC50 (pIC50) under setting [1] is 6.15. The same measure, in the same setting: in the case of `COc1ccc2c(c1)CCC2NC1CN(C(=O)Nc2ccc(Oc3ccc(F)cc3)cc2)C1` (centres unmarked) [Example 21, 3-(5-Methoxy-indan-1-ylamino)-azetidine-1-carboxylic acid [4-(4-fluoro-phenoxy)-phenyl]-amide] it was 6.51. Regarding `O=C(Nc1ccc(C(F)(F)F)cc1)N1CC(NC2CCc3cc(F)ccc32)C1` (centres unmarked) [Example 22, 3-(5-Fluoro-indan-1-ylamino)-azetidine-1-carboxylic acid (4-trifluoromethyl-phenyl)-amide], the pIC50 under setting [1] is 5.51. Same read-out and setting: the figure for `O=C(Nc1cccc(C(F)(F)F)c1)N1CC(NC2CCc3cc(F)ccc32)C1` (centres unmarked) [Example 24, 3-(5-Fluoro-indan-1-ylamino)-azetidine-1-carboxylic acid (3-trifluoromethyl-phenyl)-amide] is 5.57; for `CC1Cc2ccccc2C1NC1CN(C(=O)Nc2ccc(Oc3ccccc3)cc2)C1` (centres unmarked) [Example 25, 3-(2-Methyl-indan-1-ylamino)-azetidine-1-carboxylic acid (4-phenoxy-phenyl)-amide] it is 6.08; for `CC1CC(NC2CN(C(=O)Nc3ccc(Oc4ccccc4)cc3)C2)c2ccccc21` (centres unmarked) [Example 26, 3-(3-Methyl-indan-1-ylamino)-azetidine-1-carboxylic acid (4-phenoxy-phenyl)-amide] it is 6.62. Still for that read-out and setting: the figure for `O=C(Nc1ccc(Oc2ccccc2)cc1)N1CC(NC2CCc3cc(F)ccc32)C1` (centres unmarked) [Example 27, 3-(5-Fluoro-indan-1-ylamino)-azetidine-1-carboxylic acid (4-phenoxy-phenyl)-amide] is 6.57. Regarding `O=C(Nc1cccc(Oc2ccccc2)c1)N1CC(NC2CCc3cc(F)ccc32)C1` (centres unmarked) [Example 28, 3-(5-Fluoro-indan-1-ylamino)-azetidine-1-carboxylic acid (3-phenoxy-phenyl)-amide], the pIC50 under setting [1] is 6.37. On to `CN(C1CN(C(=O)Nc2cccc(Oc3ccccc3)c2)C1)C1CCc2cc(F)ccc21` (centres unmarked) [Example 29, 3-[(5-Fluoro-indan-1-yl)-methyl-amino]-azetidine-1-carboxylic acid (3-phenoxy-phenyl)-amide], for which the pIC50 under setting [1] was 6.38.

Values taken from patent US20100105651A1, “ANTAGONISTS OF SNS SODIUM CHANNELS” (priority 2005, published 2010).
